# Test results: patent US8697356B2, “Single-molecule-format probe and utilization thereof” (National Institute of Advanced Industrial Science and …, priority 2008, dated 2014)
# Key:
# Assay type in all cases: cell-based, African green monkey
# cytosolic Ca^2+ [1] = assay: Retention of Ca^2+ levels after wash-out, COS-7 cells carrying pCPG (Example 9); conditions: CPG; 20 minutes stimulation; thapsigargin or cyproheptadine added to 0.5 mM histamine or ATP; 2 μM ionomycin
# Experimental: Retention of cytosolic calcium Ca^2+ levels in response to an external stimulus were monitored on the basis of the luminescence intensities from COS-7 cells carrying pCPG.
# The cells were washed twice with PBS after ligand stimulation, and harvested by trypsinization and centrifugation. This wash-out terminates the external stimulation of ligands for elevating cytosolic Ca^2+ levels. The cells were resuspended with a 40 mL substrate buffer carrying coelenterazine, and then transferred to a test tube to determine the luminescence with a luminometer (Minilumat LB9506).
# cytosolic Ca^2+ [2] = assay: Ca^2+ dynamics in COS-7 cells transfected with pCPG or pSMG (Example 8); conditions: 1 mM histamine, CPG
# Source text: The dynamics of cytosolic Ca^2+ in COS-7 cells were monitored in the cells transfected with pCPG and in the cells transfected with SMG shown in FIG. 14 as a control. The free Ca^2+ was a representative second messenger in living mammalian cells. […] The outer terminals were respectively fused with M13 peptide and calmodulin. SMG is different from CPG in that calmodulin and M13 peptide are linked between N- and C-terminal fragments. That is, the luciferases are not circularly permutated in SMG.
# As in Example 2, COS-7 cells cultured in a black, glass-bottom plate (24-well) were transfected with pCPG or pSMG, and stocked in a cell incubator for 16 hours. The cells were saturated with a 300 μL Hank's balanced salt solution (HBSS) buffer containing coelenterazine.
# cytoplasm Ca^2+ = assay: Ligand affinity of CPG and CPG-ctrl, histamine-triggered Ca^2+ (Example 12)
# Source text: First, GLuc was dissected at Q105, and the original N- and C-terminals of the fragments were circularly permutated with a 10 GS linker. The outer terminals were respectively fused with M13 and CaM to form CPG. CPG-ctrl which is different from CPG only in that GLuc was not circularly permutated was parallelly formed as a control probe of CPG by the use of the same components as CPG (FIG. 20).
# As in Example 2, COS-7 cells cultured in a black, glass-bottom plate (24-well) were transiently transfected with pCPG or pCPG-ctrl, and stocked in a cell incubator for 16 hours. The cells were saturated with a 300 μL HBSS buffer containing coelenterazine.
# COS-7 cells = assay: Saturation rate of substrate in COS-7 cells carrying pCPG-ctrl (Example 13); conditions: HBSS buffer
# Experimental: A reaction rate of coelenterazine saturation in COS-7 cells was monitored. […] The cells on the plate were washed once with HBSS buffer and were saturated with 500 μL HBSS buffer. The luminescence variances after coelenterazine addition were monitored with a bioluminescence plate reader (Mithras LB 940; Berthold).
smiles,measurement,setting,value
Nc1ncnc2c1ncn2[C@@H]1O[C@H](COP(=O)(O)OP(=O)(O)OP(=O)(O)O)[C@@H](O)[C@H]1O [ATP],cytosolic Ca^2+ levels (luminescence) after wash-out,cytosolic Ca^2+ [1],quickly decreased
NCCc1c[nH]cn1 [histamine],time to reach plateau of luminescence,cytosolic Ca^2+ [2],~10 min
same,concentration from which CPG started sensing,cytoplasm Ca^2+,0.25 mM
same,time to reach plateau of luminescence,"cytoplasm Ca^2+; 1 mM histamine, CPG",~10 min
"C[C@H](CCC(=O)O)C[C@H](C)C[C@H](C)C(=O)/C=C(\O)[C@H](C)C[C@H](C)C/C=C/[C@@H](C)[C@@H](O)[C@@H](C)[C@@H](O)C[C@@H]1CC[C@@](C)([C@H]2CC[C@@](C)([C@@H](C)O)O2)O1 [Ionomycin, ionomycin]",cytosolic Ca^2+ levels (luminescence) after wash-out,cytosolic Ca^2+ [1],retaining certain levels
Oc1ccc(Cc2nc3c(Cc4ccccc4)nc(-c4ccc(O)cc4)cn3c2O)cc1 [coelenterazine],time in which the COS-7 cells were saturated,COS-7 cells,8.5 min
C/C=C(/C)C(=O)O[C@H]1C(C)=C2[C@H]([C@@H]1OC(=O)CCCCCCC)[C@@](C)(OC(C)=O)C[C@H](OC(=O)CCC)[C@@]1(O)[C@H]2OC(=O)[C@@]1(C)O [thapsigargin],cytosolic Ca^2+ levels (luminescence) after wash-out,cytosolic Ca^2+ [1],retained
